Results taken from patent publication US20130204033A1, “ANTIPROLIFERATIVE COMPOUNDS, CONJUGATES THEREOF, METHODS THEREFOR, AND USES THEREOF” (Medarex, Inc., priority 2009, published 2013).

Tests used:
Format in all cases: cell-based, human
HPAC [1] = assay: ATP luminescence proliferation assay, HPAC; conditions: Homo sapiens, ATP luminescence, 72 h incubation, read-out: EC50 HPAC (72 h)
Procedure, shortened: (§1)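 Seed 1.0×10^3 cells/well (3 h); add 1:3 dilution series of compound or conjugate; incubate 48, 72 or 96 h; measure ATP by luminescence; fit EC50 (50% inhibition of proliferation).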

SKOV3 = assay: 3H thymidine proliferation assay, SKOV3; conditions: Homo sapiens, SK-OV-3; 3H thymidine method, 72 h incubation; read-out: EC50, SKOV3
Procedure, shortened: (§2)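 Proliferation is read as incorporated ^3H-thymidine (1.0 μCi/well, final 24 h) after 72 h with 1:3 dilution series of free compound or conjugate; 1.0×10^4 cells/well. The EC50 is where proliferation falls by 50%.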

BT474 = assay: 3H thymidine proliferation assay, BT474; conditions: Homo sapiens, BT-474; 3H thymidine method, 72 h incubation; read-out: EC50, BT474
Procedure, shortened: as §2

OVCAR8 = assay: 3H thymidine proliferation assay, OVCAR8; conditions: Homo sapiens, OVCAR-8; 3H thymidine method, 72 h incubation; read-out: EC50, OVCAR8
Procedure, shortened: as §2

OVCAR3 [2] = assay: 3H thymidine proliferation assay, OVCAR3; conditions: Homo sapiens, OVCAR-3; 3H thymidine method, 72 h incubation; read-out: EC50, OVCAR3
Procedure, shortened: as §2

HCT-15 [3] = assay: 3H thymidine proliferation assay, HCT-15; conditions: Homo sapiens, HCT-15; 3H thymidine method, 72 h incubation; read-out: EC50, HCT-15
Procedure, shortened: as §2

RPMI-8226 = assay: 3H thymidine proliferation assay, RPMI-8226; conditions: Homo sapiens, RPMI-8226; 3H thymidine method, 72 h incubation; read-out: EC50, RPMI-8226
Procedure, shortened: as §2

HPAC [4] = assay: 3H thymidine proliferation assay, HPAC; conditions: Homo sapiens, HPAC; 3H thymidine method, 72 h incubation; read-out: EC50, HPAC
Procedure, shortened: as §2

786-O [5] = assay: ATP luminescence proliferation assay, 786-O; conditions: Homo sapiens, 786-0; ATP luminescence, 786-O, 48 h incubation; read-out: EC50 786-O (48 h)
Procedure, shortened: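 Cells seeded at 1.0×10^3 cells/well for 3 h, then exposed to 1:3 serial dilutions of free compounds or conjugates for 48, 72 or 96 h, as noted. ATP measured by luminescent cell viability kit; EC50 taken as concentration reducing proliferation by 50%.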

Raji = assay: ATP luminescence proliferation assay, Raji; conditions: Homo sapiens, ATP luminescence, 72 h incubation, read-out: EC50 Raji (72 h)
Procedure, shortened: as §1

Nomo-1 = assay: ATP luminescence proliferation assay, Nomo-1; conditions: Homo sapiens; ATP luminescence, Nomo-1, 72 h incubation; read-out: EC50 Nomo-1 (72 h)
Procedure, shortened: as §1

OVCAR3 [6] = assay: ATP luminescence proliferation assay, OVCAR3; conditions: Homo sapiens, OVCAR-3; ATP luminescence, OVCAR3, 48 h incubation; read-out: EC50 OVCAR3 (48 h)
Procedure, shortened: as §1

SW-620 = assay: ATP luminescence proliferation assay, SW-620; conditions: Homo sapiens; ATP luminescence, SW-620, 96 h incubation; read-out: EC50 SW-620 (96 h)
Procedure, shortened: as §1

786-O [7] = assay: 3H thymidine proliferation assay, 786-O; conditions: Homo sapiens, 786-0; 3H thymidine method, 72 h incubation; read-out: EC50, 786-O
Procedure, shortened: as §2

HCT-15 [8] = assay: ATP luminescence proliferation assay, HCT-15; conditions: Homo sapiens; ATP luminescence, HCT-15, 72 h incubation; read-out: EC50 HCT-15 (72 h)
Procedure, shortened: as §1

Hep3B = assay: ATP luminescence proliferation assay, Hep3B; conditions: Homo sapiens, ATP luminescence, 48 h incubation, read-out: EC50 Hep3B (48 h)
Procedure, shortened: as §1

MDA-MB-231 = assay: 3H thymidine proliferation assay, MDA-MB-231; conditions: Homo sapiens, MDA-MB-231; 3H thymidine method, 72 h incubation; read-out: EC50, MDA-MB-231
Procedure, shortened: as §2

NCI-H460 = assay: ATP luminescence proliferation assay, NCI-H460; conditions: Homo sapiens; ATP luminescence, NCI-H460, 72 h incubation; read-out: EC50 NCI-H460 (72 h)
Procedure, shortened: as §1

Q: With `COc1cccc2c1C(=O)c1c(O)c3c(c(O)c1C2=O)C[C@@](O)(C(=O)CO)C[C@@H]3O[C@H]1C[C@H](N)[C@H](O)[C@H](C)O1` [Dox, doxorubicin, reference compound] as the compound, how does the EC50 (HPAC [1]) read?
A: The EC50 was 215 nM.

Q: What about the EC50 (SKOV3) of the same compound?
A: Its EC50 is 163 nM.

Q: And the EC50 (BT474)?
A: Its EC50 is 424 nM.

Q: And the EC50 (OVCAR8)?
A: Its EC50 is 2040 nM.

Q: What about the EC50 (OVCAR3 [2]) of the same compound?
A: The EC50 was 258 nM.

Q: What about the EC50 (HCT-15 [3]) of the same compound?
A: The EC50 was 149 nM.

Q: And the EC50 (RPMI-8226)?
A: The EC50 was 68 nM.

Q: What about the EC50 (HPAC [4]) of the same compound?
A: The EC50 was 126 nM.

Q: And the EC50 (786-O [5])?
A: The EC50 was 360 nM.

Q: What about the EC50 (Raji) of the same compound?
A: The EC50 was 301 nM.

Q: What about the EC50 (Nomo-1) of the same compound?
A: The EC50 was 338 nM.

Q: What about the EC50 (OVCAR3 [6]) of the same compound?
A: Its EC50 is 632 nM.

Q: What about the EC50 (SW-620) of the same compound?
A: The EC50 was 145 nM.

Q: What about the EC50 (786-O [7]) of the same compound?
A: Its EC50 is 168 nM.

Q: And the EC50 (HCT-15 [8])?
A: The EC50 was 600 nM.

Q: What about the EC50 (Hep3B) of the same compound?
A: The EC50 was 443 nM.

Q: And the EC50 (MDA-MB-231)?
A: Its EC50 is 133 nM.

Q: What about the EC50 (NCI-H460) of the same compound?
A: Its EC50 is 92 nM.
